Holding throughout (format): cell-based, human
For test [1], the system named is 5-HT receptor 1E, mRNA (HTR1E). Nature of the test: Microarray gene expression in CD3+ lymphocytes, HTR1E. The note with it: 4 h, probe 1794095.
Description: (§1) CD3+ lymphocytes were isolated from the blood of haematologically normal volunteers. Cells placed into 25 cm^3 flasks at a concentration of 1×10^6/ml, and left to equilibrate in an incubator with a humidified atmosphere and 5% CO2 in air at 37° C. […] RNA extraction was performed using Trizol according to standard procedures, before being processed for microarray analysis according to the standard methodologies. Briefly, equal amounts of biotinylated cRNA was hybridised to the Illumina human HT12-v3 arrays for 18 h and subsequently processed according to manufacturer's instructions before scanning on an Illumina BeadArray Reader. The image data were processed using default values in GenomeStudio v2009.1 with imputation of missing data, before loading onto GeneSpring v9.0 for data normalisation and filtering. Data analyses were performed using Excel software, and the ratio of gene expression signals in treated vs. untreated calculated.
For test [2], the system named is 5-HT receptor 3A, transcript variant 1, mRNA (HTR3A). Nature of the test: Microarray gene expression in CD3+ lymphocytes, HTR3A transcript variant 1. The note with it: naltrexone 10 nM, 4 h, probe 1681492.
Description: as §1
Test [3] concerns 5-HT receptor 2B, mRNA (HTR2B). Nature of the test: Microarray gene expression in CD3+ lymphocytes, HTR2B. The note with it: 4 h, probe 1735764.
Description: as §1
In test [4] the test system is 5-HT receptor 3A, transcript variant 2, mRNA (HTR3A). The test is described as follows: Microarray gene expression in CD3+ lymphocytes, HTR3A transcript variant 2. The note with it: 4 h, probe 2371079.
Description: as §1
Test [5] has as its system 5-HT receptor 4, transcript variant a, mRNA (HTR4). Nature of the test: Microarray gene expression in CD3+ lymphocytes, HTR4 transcript variant a. The note with it: 4 h, probe 1676350.
Description: as §1
Test [6] relates to 5-HT receptor 4, transcript variant hb, mRNA (HTR4). Nature of the test: Microarray gene expression in CD3+ lymphocytes, HTR4 transcript variant hb. Conditions: naltrexone 10 nM, 4 h, probe 1808258.
Description: as §1
Test [7] concerns mRNA for one or more of 5-HT receptor proteins. The test is described as follows: Microarray gene expression in CD3+ lymphocytes, overall statement. The note with it: both higher dose and low dose naltrexone, 4 h.
Description: as §1

We go through one compound from patent publication US20250281481A1, “NALTREXONE FOR BOOSTING THE THERAPEUTIC UTILTY OF 5-HT RECEPTOR AGONISTS” (LDN Pharma Limited, priority 2021, published 2025).

`O=C1CC[C@@]2(O)[C@H]3Cc4ccc(O)c5c4[C@@]2(CCN3CC2CC2)[C@H]1O5` [NTX, morphinan-6-one,17-(cyclopropylmethyl)-4,5-epoxy-3,14-dihydroxy-(5α)]: the “gene expression signal, LDN” value is 101.20 in test [1] (naltrexone 10 nM); 94.00 in test [2]; 147.45 in test [3] (naltrexone 10 nM); 124.70 in test [4] (naltrexone 10 nM); 100.20 in test [5] (naltrexone 10 nM); 93.50 in test [6]. The “gene expression signal, NTX” value in test [1] (naltrexone 10 uM) was found to be 95.70; in test [3] (naltrexone 10 uM), 177.95; in test [4] (naltrexone 10 uM) it was 151.75; in test [5] (naltrexone 10 uM), 96.10. Moreover, in test [7], the “levels of mRNA for one or more of 5-HT receptor proteins” value was “increase the levels of mRNA”.
